Measured values from ChEMBL document CHEMBL1126789, “Conformational effects on retinoid receptor selectivity. 1. Effect of 9-double bond geometry on retinoid X receptor activity” (J Med Chem, 1993).
pEC50: −log10 of the molar value.

Columns and labels:
[1] = target: T1, Retinoic acid receptor alpha (Homo sapiens, UniProt P10276); test: Effective concentration against RAR-alpha receptor
T1 sequence (P10276 whole entry): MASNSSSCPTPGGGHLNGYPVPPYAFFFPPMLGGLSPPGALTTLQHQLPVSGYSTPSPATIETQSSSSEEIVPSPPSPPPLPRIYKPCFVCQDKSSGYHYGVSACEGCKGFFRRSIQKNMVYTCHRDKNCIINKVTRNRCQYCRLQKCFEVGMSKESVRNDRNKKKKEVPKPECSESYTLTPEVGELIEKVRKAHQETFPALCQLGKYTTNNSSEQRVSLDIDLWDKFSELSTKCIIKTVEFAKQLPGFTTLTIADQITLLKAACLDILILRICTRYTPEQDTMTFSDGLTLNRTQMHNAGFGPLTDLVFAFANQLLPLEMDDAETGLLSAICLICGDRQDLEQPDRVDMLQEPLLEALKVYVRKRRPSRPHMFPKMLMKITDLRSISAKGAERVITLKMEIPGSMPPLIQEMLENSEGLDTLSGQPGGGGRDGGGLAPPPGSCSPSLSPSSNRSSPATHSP

[2] = target: T2, Retinoic acid receptor gamma (Homo sapiens, UniProt P13631); test: Effective concentration against RAR-gamma receptor
T2 sequence (P13631 whole entry): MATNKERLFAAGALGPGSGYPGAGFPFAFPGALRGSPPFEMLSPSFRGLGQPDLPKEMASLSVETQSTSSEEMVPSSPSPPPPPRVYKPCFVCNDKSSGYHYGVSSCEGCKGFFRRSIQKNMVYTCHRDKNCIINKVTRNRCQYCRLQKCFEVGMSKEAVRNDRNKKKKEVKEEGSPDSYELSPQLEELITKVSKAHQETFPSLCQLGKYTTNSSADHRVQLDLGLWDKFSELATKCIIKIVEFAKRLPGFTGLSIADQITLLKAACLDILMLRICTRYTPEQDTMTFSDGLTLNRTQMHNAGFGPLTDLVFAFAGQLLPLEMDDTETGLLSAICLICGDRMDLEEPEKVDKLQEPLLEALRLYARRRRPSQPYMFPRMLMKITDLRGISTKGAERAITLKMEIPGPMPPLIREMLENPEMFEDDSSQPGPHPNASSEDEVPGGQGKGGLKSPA

[3] = target: T3, Retinoic acid receptor beta (Homo sapiens, UniProt P10826); test: Effective concentration against Retinoic acid receptor beta
T3 sequence (P10826 whole entry): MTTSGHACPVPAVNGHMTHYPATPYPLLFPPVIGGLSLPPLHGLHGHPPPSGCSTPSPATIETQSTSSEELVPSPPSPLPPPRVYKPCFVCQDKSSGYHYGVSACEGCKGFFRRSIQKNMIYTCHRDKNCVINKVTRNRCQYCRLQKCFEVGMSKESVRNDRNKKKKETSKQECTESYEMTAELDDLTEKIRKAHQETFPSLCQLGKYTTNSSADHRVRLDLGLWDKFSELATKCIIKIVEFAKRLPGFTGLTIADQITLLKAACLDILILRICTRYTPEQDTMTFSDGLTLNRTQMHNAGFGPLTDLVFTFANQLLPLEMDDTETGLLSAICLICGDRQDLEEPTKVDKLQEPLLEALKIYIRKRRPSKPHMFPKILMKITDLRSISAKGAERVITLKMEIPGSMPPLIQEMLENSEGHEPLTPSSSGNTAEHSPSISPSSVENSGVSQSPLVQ

[4] = target: T4, Retinoic acid receptor RXR-alpha (Homo sapiens, UniProt P19793); test: Effective concentration against RXR-alpha receptor
T4 sequence (P19793 whole entry): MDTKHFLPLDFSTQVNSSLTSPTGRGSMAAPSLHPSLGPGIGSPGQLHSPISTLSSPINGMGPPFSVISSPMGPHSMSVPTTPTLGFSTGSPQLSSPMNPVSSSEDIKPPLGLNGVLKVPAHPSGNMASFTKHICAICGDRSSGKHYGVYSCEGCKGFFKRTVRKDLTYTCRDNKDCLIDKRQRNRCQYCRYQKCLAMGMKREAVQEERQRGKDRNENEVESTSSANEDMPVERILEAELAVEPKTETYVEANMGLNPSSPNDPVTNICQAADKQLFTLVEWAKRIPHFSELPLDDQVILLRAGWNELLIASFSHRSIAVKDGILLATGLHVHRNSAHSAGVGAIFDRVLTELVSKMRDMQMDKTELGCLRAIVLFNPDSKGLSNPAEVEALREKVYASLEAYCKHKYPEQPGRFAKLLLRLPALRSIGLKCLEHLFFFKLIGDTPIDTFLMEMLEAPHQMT

[5] = target: T3, Retinoic acid receptor beta; test: Effective concentration against RAR-beta receptor

CC1=C(/C=C/C(C)=C\c2ccc(C(=O)O)cc2)C(C)(C)CCC1
pEC50 [1]: 5.30 | pEC50 [2]: 5.70 | pEC50 [3]: 5.74

CC1=C(CC/C(C)=C/c2ccc(C(=O)O)cc2)C(C)(C)CCC1
pEC50 [1]: 6.26 | pEC50 [4]: 5.82 | pEC50 [2]: 6.68 | pEC50 [3]: 7.70

C/C(=C\c1ccc2c(c1)C(C)(C)CCS2)c1ccc(C(=O)O)cc1
pEC50 [1]: 7.35 | pEC50 [2]: 7.33 | pEC50 [3]: 7.40

CC1=C(/C=C/C(C)=C/c2ccc(C(=O)O)cc2)C(C)(C)CCC1
pEC50 [1]: 6.62 | pEC50 [2]: 7.46 | pEC50 [3]: 8.30

C/C(=C/c1ccc(C(=O)O)cc1)c1ccc2c(c1)C(C)(C)CCS2
pEC50 [1]: 5.64 | pEC50 [2]: 5.96 | pEC50 [3]: 6.60

CC1(C)CCC(C)(C)c2cc(-c3ccccc3-c3ccc(C(=O)O)cc3)ccc21
pEC50 [4]: 5.55 | pEC50 [2]: 7.00 | pEC50 [3]: 5.49

C/C(=C\c1ccc(C(=O)O)cc1)c1ccc2c(c1)C1CCC2C1 (stereo not drawn)
pEC50 [5]: 5.96 | pEC50 [2]: 6.26

C/C(=C/c1ccc2c(c1)C(C)(C)CCC2(C)C)c1ccc(C(=O)O)cc1
pEC50 [4]: 5.96 | pEC50 [2]: 5.57 | pEC50 [3]: 5.72

C/C(=C\c1ccc(C(=O)O)cc1)c1ccc2c(c1)C(C)(C)CCS2
pEC50 [1]: 7.57 | pEC50 [2]: 7.52 | pEC50 [3]: 7.82

CC1=C(CC/C(C)=C\c2ccc(C(=O)O)cc2)C(C)(C)CCC1
pEC50 [2]: 5.89 | pEC50 [3]: 5.70

C/C(=C/c1ccc(C(=O)O)cc1)c1ccc2c(c1)C1CCC2C1 (stereo not drawn)
pEC50 [2]: 7.15

C/C(=C\c1ccc2c(c1)C(C)(C)CCC2(C)C)c1ccc(C(=O)O)cc1
pEC50 [1]: 7.43 | pEC50 [2]: 7.72 | pEC50 [3]: 7.60

C/C(=C/c1ccc(C(=O)O)cc1)c1ccc2c(c1)C(C)(C)CCC2(C)C
pEC50 [4]: 5.57

C/C(=C/c1ccc2c(c1)C(C)(C)CCS2)c1ccc(C(=O)O)cc1
pEC50 [1]: 5.68 | pEC50 [4]: 5.55 | pEC50 [2]: 5.82 | pEC50 [3]: 5.82
